In PubChem BioAssay (NCI) one finds TGI and GI50 data, which are given here for 23 compounds.

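96-well plates; 48 h exposure; 5 concentrations. Endpoints by linear interpolation between flanking doses. Not reached: highest tested concentration assigned. Abbreviation: GI50, concentration required for 50% inhibition of growth. TGI is the concentration that stops growth completely.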 Where only a bound is given, the exact number is not on record here.

Some test systems named below: ACHN renal; EKVX NSCLC; HS 578T breast; MCF7 breast; MDA-MB-435; OVCAR-3 ovarian; SK-MEL-28 melanoma; SW-620 colon; UO-31 renal; CCRF-CEM leukemia.
Experiment in all cases: NCI tumour cell line growth inhibition, 48 h

On to `CN(C)CCC(C#N)(c1ccccc1)c1ccccc1`, for which the TGI in the assay on ACHN renal, in the assay on EKVX NSCLC, in the assay on HS 578T breast, with MCF7 breast, in the assay on MDA-MB-435 and in the assay on OVCAR-3 ovarian was over 100 µM each time. Also, the TGI with SK-MEL-28 melanoma was 58.4 µM; with SW-620 colon it was over 100 µM; in the assay with UO-31 renal, over 100 µM.

For `N#CC(NNC(=O)c1ccccc1O)c1ccccc1O` (stereo unspecified), the TGI in the assay on ACHN renal was over 100 µM; in the assay with CCRF-CEM leukemia, over 100 µM; in the assay on OVCAR-3 ovarian it was over 100 µM; in the assay with SK-MEL-28 melanoma, over 100 µM; in the assay with SW-620 colon, over 100 µM; with UO-31 renal, 48.4 µM.

On to `CCOc1cc(NC(C)=O)ccc1C(=O)NN1C(=O)/C(=C/c2ccc(Cl)cc2)N=C1c1ccccc1`, for which the TGI in the assay on ACHN renal was over 100 µM; in the assay on CCRF-CEM leukemia it was 93 µM; with EKVX NSCLC, over 100 µM; with MCF7 breast, over 100 µM; in the assay on MDA-MB-435, over 100 µM; with OVCAR-3 ovarian it was over 100 µM. Also, the TGI in the assay with SK-MEL-28 melanoma, in the assay with SW-620 colon and with UO-31 renal was over 100 µM each time.

In the case of `CC(=O)O[C@H]1CC[C@@]2(C)C(=CC[C@@H]3[C@@H]2CC[C@]2(C)C(=O)/C(=C\c4ccccc4)C[C@@H]32)C1`, the TGI with ACHN renal, with CCRF-CEM leukemia, with EKVX NSCLC, in the assay on MCF7 breast, in the assay with MDA-MB-435 and with OVCAR-3 ovarian was over 100 µM in each case. Besides, the TGI with SK-MEL-28 melanoma, in the assay on SW-620 colon and in the assay on UO-31 renal was over 100 µM each time.

Take `NC(Cc1c2ccccc2cc2ccccc12)C(=O)O` (stereo unspecified): the TGI in the assay on ACHN renal, with CCRF-CEM leukemia, in the assay with EKVX NSCLC, in the assay on MCF7 breast, in the assay with MDA-MB-435 and in the assay on OVCAR-3 ovarian was over 100 µM in each case. In addition, the TGI with SK-MEL-28 melanoma, in the assay on SW-620 colon and in the assay with UO-31 renal was over 100 µM each time.

Regarding `O=C(O)OC12CCCCCC1C(=O)C1CCCCC12` (stereo unspecified), the TGI with ACHN renal, in the assay on CCRF-CEM leukemia, with EKVX NSCLC, in the assay with SK-MEL-28 melanoma, in the assay with SW-620 colon and in the assay with UO-31 renal was over 100 µM in each case.

As for `COC(=O)c1c(O)ccc2c1c1c(n2CCc2ccccc2)C(=O)c2ccccc2C1`, the TGI is 60.6 µM in the assay on CCRF-CEM leukemia; over 100 µM in the assay with HS 578T breast; 42.5 µM in the assay on MCF7 breast; 67 µM with MDA-MB-435; 47.5 µM with OVCAR-3 ovarian; 53.8 µM in the assay with SK-MEL-28 melanoma. Also, the results for the TGI in the assay with SW-620 colon and in the assay on UO-31 renal were over 100 µM and 49.7 µM, respectively.

Consider `COC(=O)C(Cc1ccc2c(c1)OCO2)(NC(=O)c1ccccc1)P(=O)(OC)OC` (stereo unspecified), for which the TGI in the assay on ACHN renal, in the assay on CCRF-CEM leukemia, with EKVX NSCLC, in the assay on SK-MEL-28 melanoma, with SW-620 colon and in the assay on UO-31 renal was over 100 µM in each case.

As to `CCCCCCCCCCCCOC(=N)N1CCOCC1`, the TGI in the assay with ACHN renal was 27.7 µM; in the assay on CCRF-CEM leukemia, 9.44 µM; with EKVX NSCLC, 26.4 µM; in the assay on OVCAR-3 ovarian, 30.3 µM; in the assay on SK-MEL-28 melanoma it was 25.3 µM; in the assay with SW-620 colon it was 16.6 µM. The TGI with UO-31 renal was found to be 26.8 µM.

As to `COc1nc2c(c(=O)[nH]1)N=C(c1ccc([N+](=O)[O-])cc1)CC(c1ccccc1)N2` (stereo unspecified), the TGI in the assay on ACHN renal, in the assay with CCRF-CEM leukemia, with EKVX NSCLC, with MCF7 breast, in the assay on MDA-MB-435 and with OVCAR-3 ovarian was over 100 µM throughout. The TGI with SK-MEL-28 melanoma, in the assay with SW-620 colon and in the assay with UO-31 renal was over 100 µM in each case.

For `CC12CCC(C(=Nc3ccc([N+](=O)[O-])cc3)C1=O)C2(C)C` (stereo unspecified), the TGI in the assay with ACHN renal was over 100 µM; in the assay on EKVX NSCLC, over 100 µM; in the assay with MCF7 breast, over 100 µM; with MDA-MB-435 it was 64.6 µM; with OVCAR-3 ovarian, 55.1 µM; in the assay with SK-MEL-28 melanoma it was 37.4 µM. The TGI in the assay with SW-620 colon is 98.4 µM; in the assay with UO-31 renal it was over 100 µM.

For the compound `COC(=O)C#CC1(O)C=CC(=O)C=C1`, the TGI worked out at 10.1 µM with ACHN renal; 0.758 µM in the assay with CCRF-CEM leukemia; 24.5 µM in the assay on EKVX NSCLC; 16.1 µM in the assay with HS 578T breast; 1.28 µM with MDA-MB-435; 1.6 µM in the assay on OVCAR-3 ovarian. Moreover, the TGI in the assay with SK-MEL-28 melanoma is 1.67 µM; with UO-31 renal, 10.6 µM.

Consider `CSc1cnc2ccccc2c1Sc1cn(C)c2ccccc2c1=O`, for which the TGI was over 100 µM in the assay with ACHN renal; over 100 µM in the assay with CCRF-CEM leukemia; over 100 µM in the assay with EKVX NSCLC; 95.5 µM in the assay with OVCAR-3 ovarian; over 100 µM in the assay with SK-MEL-28 melanoma; over 100 µM with SW-620 colon. This compound also displayed a TGI in the assay on UO-31 renal of over 100 µM.

Regarding `COc1ccc2nc3cc(Cl)ccc3c(NCCCN(C)CCCNc3ccc4ncn5c6ccccc6c(=O)c3c45)c2c1`, the TGI is 3.93 µM with ACHN renal; over 25 µM in the assay on CCRF-CEM leukemia; 7.15 µM with EKVX NSCLC; over 19.5 µM in the assay on HS 578T breast; 5.23 µM with MDA-MB-435; 6.79 µM in the assay on OVCAR-3 ovarian. Besides, the TGI in the assay with SK-MEL-28 melanoma is 7.38 µM; with SW-620 colon, over 25 µM; in the assay with UO-31 renal, 7.28 µM.

With `COC(=O)c1c(C(=O)OC)c2ccccn2c1-c1cc(C)cc2c1C(=O)C=CC2=O`, the TGI in the assay with ACHN renal came out at 17.2 µM; with CCRF-CEM leukemia, 3.65 µM; with EKVX NSCLC it was 21.7 µM; in the assay on HS 578T breast, 24.2 µM; with MDA-MB-435, 16 µM; with OVCAR-3 ovarian it was 15.6 µM. In addition, the TGI amounted to 17.9 µM in the assay on SK-MEL-28 melanoma, 8.21 µM with SW-620 colon and 6.05 µM with UO-31 renal.

For `C/C(=C/C(=O)N(C)c1ccccc1Cl)O[Si](C(C)C)(C(C)C)C(C)C`, the TGI was 75.3 µM in the assay with EKVX NSCLC; over 100 µM in the assay with MDA-MB-435; 33.5 µM in the assay with OVCAR-3 ovarian; over 100 µM in the assay on SK-MEL-28 melanoma; 38.9 µM with SW-620 colon; 39.3 µM in the assay on UO-31 renal.

Consider `O[C@@H]1CCCCN1Cc1cc2cc3c(cc2c2cc(OCc4ccccc4)ccc12)OCO3`, for which the GI50 in the assay on ACHN renal was 1.47 µM; with CCRF-CEM leukemia, 0.176 µM; in the assay with EKVX NSCLC, 2.01 µM; in the assay with MCF7 breast, 1.33 µM; with MDA-MB-435, 1.63 µM; with OVCAR-3 ovarian it was 1.5 µM. Also, the GI50 in the assay on SK-MEL-28 melanoma is 1.55 µM; with SW-620 colon it was 1.17 µM; in the assay with UO-31 renal, 1.53 µM. Further, the TGI was 2.79 µM in the assay with ACHN renal; 4.61 µM with CCRF-CEM leukemia; 3.97 µM in the assay on EKVX NSCLC; 2.73 µM in the assay with MCF7 breast; 3.06 µM with MDA-MB-435; 2.95 µM in the assay on OVCAR-3 ovarian. In addition, the TGI came to 2.94 µM in the assay on SK-MEL-28 melanoma, 2.7 µM in the assay on SW-620 colon and 2.89 µM in the assay on UO-31 renal.

Regarding `O=c1[nH]nc(Nc2ccc(Cl)cc2)c2nnn(-c3ccc([N+](=O)[O-])cc3)c12`, the TGI was over 100 µM in the assay on ACHN renal; 61.7 µM with CCRF-CEM leukemia; over 100 µM with EKVX NSCLC; 47.4 µM with MCF7 breast; over 100 µM in the assay on MDA-MB-435; over 100 µM in the assay on SW-620 colon.

In the case of `CCOC(=O)n1c(=O)nc2c3c(ncn21)Oc1c(c(-c2ccccc2)nn1-c1ccccc1)C3c1ccc(Cl)cc1` (stereo unspecified), the TGI in the assay on ACHN renal came out at 3.09 µM; with CCRF-CEM leukemia it was 2.72 µM; in the assay with HS 578T breast, 3.37 µM; in the assay with MCF7 breast, 2.9 µM; with MDA-MB-435 it was 3.03 µM; in the assay with OVCAR-3 ovarian it was 2.79 µM. For the same compound, the TGI in the assay with SK-MEL-28 melanoma is 3.18 µM; in the assay with SW-620 colon, 3.09 µM; in the assay on UO-31 renal it was 2.85 µM.

Regarding `CC(C)OP(=O)(OC(C)C)C(=Nc1ccc(N=C(NNc2ccc([N+](=O)[O-])cc2)P(=O)(OC(C)C)OC(C)C)cc1)NNc1ccc([N+](=O)[O-])cc1`, the TGI with ACHN renal, in the assay with CCRF-CEM leukemia, in the assay on EKVX NSCLC, in the assay with OVCAR-3 ovarian, in the assay with SK-MEL-28 melanoma and in the assay with UO-31 renal was over 100 µM in each case.

Regarding `CCCCc1c2c([n+]([O-])c3c1CCCC3)CCCC2`, the TGI in the assay on ACHN renal was 43.1 µM; in the assay with CCRF-CEM leukemia, over 100 µM; in the assay with EKVX NSCLC, over 100 µM; with OVCAR-3 ovarian it was over 100 µM; in the assay on SK-MEL-28 melanoma it was over 100 µM; in the assay with SW-620 colon it was over 100 µM. Also, in the assay on UO-31 renal, the TGI is over 100 µM.

Take `N#CC(C#N)=CNC(=S)Nc1ccc(S(=O)(=O)Nc2nccs2)cc1`: the TGI in the assay on ACHN renal, with EKVX NSCLC, in the assay with MCF7 breast, with MDA-MB-435, with OVCAR-3 ovarian and in the assay on SK-MEL-28 melanoma was over 100 µM in each case. Moreover, the TGI with SW-620 colon and in the assay with UO-31 renal was over 100 µM throughout.

For `CC1CC(=O)C(CC(=O)O)[C@H]1C(C(=O)C(=O)Nc1cc(Cl)ccc1Cl)[N+](=O)[O-]` (stereo partly specified), the TGI with ACHN renal, in the assay on CCRF-CEM leukemia, in the assay on EKVX NSCLC, with OVCAR-3 ovarian, with SK-MEL-28 melanoma and in the assay with SW-620 colon was over 100 µM each time. In the assay on UO-31 renal, this compound yielded a TGI of over 100 µM.
